Measurements published in ChEMBL document CHEMBL5344418, “Recent developments in antimalarial activities of 4-aminoquinoline derivatives” (Eur J Med Chem, 2023).

Experiments:
Plasmodium falciparum [1] = test: Antiplasmodial activity against Plasmodium falciparum 3D7 assessed as reduction in parasite growth by Lactate dehydrogenase assay; assay type: functional, organism-based
Plasmodium falciparum [2] = test: Antiplasmodial activity against Plasmodium falciparum Dd2 assessed as reduction in parasitic growth incubated for 48 hrs by SYBR Green staining based fluorescence analysis; assay type: functional, organism-based; settings: Dd2, 48 h
Plasmodium falciparum [3] = test: Antimalarial activity against Plasmodium falciparum assessed as reduction in parasite growth incubated for 48 hrs by Giemsa staining based analysis; assay type: functional, organism-based
Plasmodium falciparum [4] = test: Antimalarial activity against Plasmodium falciparum Dd2 assessed as reduction in parasitic growth incubated for 48 hrs by SYBR green assay; assay type: functional, organism-based; settings: Dd2, 48 h
Plasmodium falciparum [5] = test: Antiplasmodial activity against Plasmodium falciparum K1; assay type: functional, organism-based
Plasmodium falciparum [6] = test: Antiplasmodial activity against Plasmodium falciparum 3D7 assessed as inhibition of parasitic growth; assay type: functional, organism-based
Plasmodium falciparum [7] = test: Antimalarial activity against Plasmodium falciparum Dd2 assessed as reduction in parasitic growth; assay type: functional, organism-based
Plasmodium falciparum [8] = test: Antiplasmodial activity against Plasmodium falciparum NF54; assay type: functional, organism-based
[9] = Cytotoxicity against African green monkey Vero cells by MTT assay; assay type: toxicity, cell-based; settings: African green monkey (Chlorocebus sabaeus)
[10] = Cytotoxicity against African green monkey Vero cells assessed as reduction in cell viability incubated for 48 hrs by MTT assay; assay type: toxicity, cell-based; settings: chlorocebus sabaeus
Plasmodium falciparum [11] = test: Antimalarial activity against Plasmodium falciparum K1 assessed as reduction in parasitic growth incubated for 48 hrs by Giemsa-staining counting based microscopic analysis; assay type: functional, organism-based; settings: K1, 48 h
Plasmodium falciparum [12] = test: Antimalarial activity against Plasmodium falciparum 3D7 assessed as reduction in parasite growth incubated for 48 hrs by Giemsa-staining counting based microscopic analysis; assay type: functional, organism-based; settings: 3D7, 48 h
Plasmodium berghei = test: Antimalarial activity against Plasmodium berghei ANKA; assay type: functional, organism-based
Plasmodium falciparum [13] = test: Antiplasmodial activity against chloroquine-resistant Plasmodium falciparum W2 assessed as parasitic growth inhibition incubated for 72 hrs by SYBR Green staining based fluorescence analysis; assay type: functional, organism-based; settings: W2, 72 h
Plasmodium falciparum [14] = test: Antimalarial activity against chloroquine-resistant Plasmodium falciparum W2 assessed as growth inhibition incubated for 48 hrs by flow cytometry based analysis; assay type: functional, organism-based; settings: W2, 48 h
[15] = Cytotoxicity against African green monkey Vero cells assessed as reduction in cell viability incubated for 24 hrs by fluorescence based analysis; assay type: toxicity; settings: African green monkey (Chlorocebus sabaeus)
[16] = Cytotoxicity against African monkey Vero cells assessed as reduction in cell viability incubated for 72 hrs by MTT assay; assay type: toxicity, cell-based; settings: chlorocebus sabaeus

## COC(=O)/C=C/c1ccccc1Nc1ccnc2cc(Cl)ccc12
Plasmodium falciparum [1]
  IC50: 2320 nM

## COc1ccc2nc(/C=C/c3ccncc3)cc(N3CCCC3)c2c1
Plasmodium falciparum [2]
  IC50: 367 nM

## Nc1ccccc1Nc1ccnc2cc(Cl)ccc12
Plasmodium falciparum [3]
  IC50: 35300 nM

## COc1ccc2nc(/C=C/c3ccc([N+](=O)[O-])cc3)cc(NC3CCCCC3)c2c1
Plasmodium falciparum [4]
  IC50: 171 nM

## O=C(NNc1ccnc2cc(Cl)ccc12)c1cc(-c2ccccc2)nc2ccccc12
Plasmodium falciparum [5]
  IC50: 600 nM

## CN(CCCCCCCCNc1ccnc2ccccc12)Cc1ccc(-c2ccc(-c3ccc(C#N)cc3)s2)cc1
Plasmodium falciparum [6]
  IC50: 120 nM
Plasmodium falciparum [7]
  IC50: 71.5 nM

## Fc1ccc2scc(-c3ccc(CNCCCNc4ccnc5ccccc45)cc3)c2c1
Plasmodium falciparum [6]
  IC50: 18.8 nM
Plasmodium falciparum [7]
  IC50: 73.3 nM

## COc1ccc2nc(/C=C/c3ccncc3)cc(N3CCOCC3)c2c1
Plasmodium falciparum [2]
  IC50: > 10000 nM

## COc1ccc(/C(C)=N/C(=S)NNc2ccnc3cc(Cl)ccc23)cc1OC
Plasmodium falciparum [3]
  IC50: 38700 nM

## O=C(CNCCCNc1ccnc2cc(Cl)ccc12)Nc1cc2c(cc1Cl)-c1ccccc1C21CCCC1
Plasmodium falciparum [8]
  IC50: 204 nM
[9]
  IC50: 12500 nM

## C/C(=N\C(=S)NNc1ccnc2cc(Cl)ccc12)c1ccc2ccccc2c1
Plasmodium falciparum [3]
  IC50: 79800 nM

## COc1ccc(Nc2ccnc3cc(Cl)ccc23)cc1
Plasmodium falciparum [5]
  IC50: 4870 nM

## COc1ccc(/C(C)=N\c2ccccc2Nc2ccnc3cc(Cl)ccc23)cc1OC
Plasmodium falciparum [3]
  IC50: 49700 nM

## CCOC(=O)c1nn(CCNc2ccnc3cc(Cl)ccc23)c2c1C(c1ccccc1)C(C#N)=C(N)O2 (stereo not given)
[10]
  CC50 at 48 h: 103000 nM
Plasmodium falciparum [11]
  EC50: 250 nM
Plasmodium falciparum [12]
  EC50: 190 nM

## COc1ccc2nc(/C=C/c3ccncc3)cc(N3CCN(CCO)CC3)c2c1
Plasmodium falciparum [2]
  IC50: > 10000 nM

## N#Cc1ccc(-c2ccc(-c3ccc(CNCCCCCCCCNc4ccnc5cc(Cl)ccc45)cc3)s2)cc1
Plasmodium falciparum [6]
  IC50: 97.3 nM
Plasmodium falciparum [7]
  IC50: 174 nM

## COc1cc2c(cc1OC)CC(Nc1ccnc3cc(Cl)ccc13)C2
Plasmodium berghei
  IC50: 390 nM

## COc1ccc2nc(/C=C/c3ccc([N+](=O)[O-])cc3)cc(N3CCN(C)CC3)c2c1
Plasmodium falciparum [4]
  IC50: 452 nM

## NC(S)=NNc1ccnc2cc(Cl)ccc12
Plasmodium falciparum [3]
  IC50: 25400 nM

## COc1ccc(NNc2ccnc3cc(Cl)ccc23)cc1
Plasmodium falciparum [5]
  IC50: 3480 nM

## COc1ccc(OC)c2c1CC(Nc1ccnc3cc(Cl)ccc13)C2
Plasmodium berghei
  IC50: 480 nM

## COc1ccc2nc(/C=C/c3ccncc3)cc(N3CCN(C)CC3)c2c1
Plasmodium falciparum [2]
  IC50: 610 nM

## CC(C)(C)NC(=O)/C=C/c1cccc(Nc2ccnc3cc(Cl)ccc23)c1
Plasmodium falciparum [1]
  IC50: 14800 nM

## CCOC(=O)/C=C/c1cccc(Nc2ccnc3cc(Cl)ccc23)c1
Plasmodium falciparum [1]
  IC50: 14400 nM

## C=C[C@H]1CN2CC[C@H]1C[C@H]2[C@H](O)c1ccnc2ccc(OC)cc12 [QUININE]
Plasmodium falciparum [5]
  IC50: 830 nM
Plasmodium falciparum [13]
  IC50: 504 nM

## Clc1ccc2c(Nc3nc[nH]n3)ccnc2c1
Plasmodium falciparum [3]
  IC50: 42600 nM

## Clc1ccc2c(NC3Cc4ccccc4C3)ccnc2c1
Plasmodium berghei
  IC50: 600 nM

## COC(=O)/C=C/c1ccccc1Nc1ccnc2cc(OC)ccc12
Plasmodium falciparum [1]
  IC50: 15400 nM

## COc1ccc2nc(/C=C/c3ccc([N+](=O)[O-])cc3)cc(Nc3ccccc3)c2c1
Plasmodium falciparum [4]
  IC50: 509 nM

## COc1ccc2nc(/C=C/c3ccc([N+](=O)[O-])cc3)cc(N3CCOCC3)c2c1
Plasmodium falciparum [4]
  IC50: > 10000 nM

## CCOC(=O)c1nn(CCNc2ccnc3cc(Cl)ccc23)c2c1C(c1ccc(O)cc1)C(C#N)=C(N)O2 (stereo not given)
[10]
  CC50 at 48 h: 9240 nM
Plasmodium falciparum [11]
  EC50: 7120 nM
Plasmodium falciparum [12]
  EC50: 26 nM

## O=C(NCCCNc1ccnc2cc(Cl)ccc12)C(=O)Nc1cc2c(cc1Cl)-c1ccccc1C2
Plasmodium falciparum [8]
  IC50: 437 nM
[9]
  IC50: 26000 nM

## COc1ccc2nc(/C=C/c3ccncc3)cc(NC3CCCCC3)c2c1
Plasmodium falciparum [2]
  IC50: 277 nM

## CCOC(=O)c1nn(CCNc2ccnc3cc(Cl)ccc23)c2c1C(c1ccco1)C(C#N)=C(N)O2 (stereo not given)
[10]
  CC50 at 48 h: 84500 nM
Plasmodium falciparum [11]
  EC50: 1610 nM
Plasmodium falciparum [12]
  EC50: 113 nM

## COC(=O)/C=C/c1ccc(Nc2ccnc3cc(Cl)ccc23)cc1
Plasmodium falciparum [1]
  IC50: 3220 nM

## O=C1c2cccc(N3CCCCC3)c2C(=O)N1CCNc1ccnc2cc(Cl)ccc12
Plasmodium falciparum [14]
  IC50: 158 nM
[15]
  IC50 at 24 h: 28800 nM

## O=C1c2ccc(N3CCCCC3)cc2C(=O)N1CCCCCCNc1ccnc2cc(Cl)ccc12
Plasmodium falciparum [14]
  IC50: 12 nM
[15]
  IC50 at 24 h: 25500 nM

## O=C(O)/C=C/c1ccc(Nc2ccnc3cc(Cl)ccc23)cc1
Plasmodium falciparum [1]
  IC50: 18500 nM

## CC(CCCNCc1ccc(-c2csc3ccc(F)cc23)cc1)Nc1ccnc2cc(Cl)ccc12 (stereo not given)
Plasmodium falciparum [6]
  IC50: 82.3 nM
Plasmodium falciparum [7]
  IC50: 187 nM

## COc1ccc(C(=O)NNc2ccnc3cc(Cl)ccc23)cc1
Plasmodium falciparum [5]
  IC50: 1130 nM

## CCCCC1(CCCC)c2ccccc2-c2cc(Cl)c(NC(=O)CNCCCNc3ccnc4cc(Cl)ccc34)cc21
Plasmodium falciparum [8]
  IC50: 139 nM
[9]
  IC50: 15900 nM

## O=C(/C=C/c1cccc(Nc2ccnc3cc(Cl)ccc23)c1)OC1CCCCC1
Plasmodium falciparum [1]
  IC50: 16400 nM

## COC(=O)/C=C/c1cccc(Nc2ccnc3cc(Cl)ccc23)c1
Plasmodium falciparum [1]
  IC50: 1810 nM

## O=C1c2ccc(N3CCCCC3)cc2C(=O)N1CCNc1ccnc2cc(Cl)ccc12
Plasmodium falciparum [14]
  IC50: 163 nM
[15]
  IC50 at 24 h: 28800 nM

## COc1ccc2nc(/C=C/c3cccs3)cc(NCCN(C)C)c2c1
Plasmodium falciparum [4]
  IC50: 96 nM

## O=C1c2ccc(N3CCOCC3)cc2C(=O)N1CCCNc1ccnc2cc(Cl)ccc12
Plasmodium falciparum [14]
  IC50: 118 nM
[15]
  IC50 at 24 h: 222000 nM

## N#Cc1ccc2c(CNCCCNc3ccnc4cc(Cl)ccc34)csc2c1
Plasmodium falciparum [6]
  IC50: 50.2 nM
Plasmodium falciparum [7]
  IC50: 18.6 nM

## CCOC(=O)c1nn(CCNc2ccnc3cc(Cl)ccc23)c2c1C(c1ccc(CC)cc1)C(C#N)=C(N)O2 (stereo not given)
[10]
  CC50 at 48 h: 17600 nM
Plasmodium falciparum [11]
  EC50: 20 nM
Plasmodium falciparum [12]
  EC50: 13 nM

## O=C1c2cccc(N3CCOCC3)c2C(=O)N1CCNc1ccnc2cc(Cl)ccc12
Plasmodium falciparum [14]
  IC50: 180 nM
[15]
  IC50 at 24 h: 28600 nM

## Cc1cc(C(=O)NNc2ccnc3cc(Cl)ccc23)c2ccccc2n1
Plasmodium falciparum [5]
  IC50: 90 nM

## O=[N+]([O-])c1ccc(NNc2ccnc3cc(Cl)ccc23)cc1
Plasmodium falciparum [5]
  IC50: 3260 nM

## COc1ccc2nc(/C=C/c3ccc([N+](=O)[O-])cc3)cc(N3CCCC3)c2c1
Plasmodium falciparum [4]
  IC50: 493 nM

## C/C(=N/c1ccccc1Nc1ccnc2cc(Cl)ccc12)c1ccc2ccccc2c1
Plasmodium falciparum [3]
  IC50: 77600 nM

## O=C(CNCCCNc1ccnc2cc(Cl)ccc12)Nc1cc2c(cc1Cl)-c1ccccc1C2
Plasmodium falciparum [8]
  IC50: 346 nM
[9]
  IC50: 11200 nM

## CC1(C)c2ccccc2-c2cc(Cl)c(NC(=O)CNCCCNc3ccnc4cc(Cl)ccc34)cc21
Plasmodium falciparum [8]
  IC50: 270 nM
[9]
  IC50: 6330 nM

## COc1ccc2nc(/C=C/c3ccc([N+](=O)[O-])cc3)cc(N3CCN(CCO)CC3)c2c1
Plasmodium falciparum [4]
  IC50: 672 nM

## CC1=NC(=S)N(Nc2ccnc3cc(Cl)ccc23)C(=O)C1
Plasmodium falciparum [3]
  IC50: 11900 nM

## COc1ccc2nc(/C=C/c3ccc(Br)cc3)cc(NCCN(C)C)c2c1
Plasmodium falciparum [4]
  IC50: 40 nM

## O=C1c2ccc(N3CCCCC3)cc2C(=O)N1CCCNc1ccnc2cc(Cl)ccc12
Plasmodium falciparum [14]
  IC50: 176 nM
[15]
  IC50 at 24 h: 55800 nM

## CCN(CC)CCCC(C)Nc1ccnc2cc(Cl)ccc12 (stereo not given) [CHLOROQUINE]
Plasmodium falciparum [11]
  EC50: 330 nM
Plasmodium falciparum [12]
  EC50: 2 nM
[16]
  CC50 at 72 h: 86800 nM

## O=C(O)/C=C/c1cccc(Nc2ccnc3cc(Cl)ccc23)c1
Plasmodium falciparum [1]
  IC50: 9630 nM

## Clc1ccc2c(NCCNCc3csc4ccccc34)ccnc2c1
Plasmodium falciparum [6]
  IC50: > 500 nM
Plasmodium falciparum [7]
  IC50: 14.4 nM

## Cc1ccc(C(=O)NNc2ccnc3cc(Cl)ccc23)cc1
Plasmodium falciparum [5]
  IC50: 920 nM

## O=[N+]([O-])c1ccc(Nc2ccnc3cc(Cl)ccc23)cc1
Plasmodium falciparum [5]
  IC50: 5510 nM

## CC1(C)c2ccccc2-c2cc(Cl)c(NC(=O)C(=O)NCCCNc3ccnc4cc(Cl)ccc34)cc21
Plasmodium falciparum [8]
  IC50: 326 nM
[9]
  IC50: 17700 nM

## COc1ccc2nc(/C=C/c3ccncc3)cc(N3CCCCC3)c2c1
Plasmodium falciparum [2]
  IC50: 4900 nM

## CCOC(=O)c1nn(CCNc2ccnc3cc(Cl)ccc23)c2c1C(C(C)C)C(C#N)=C(N)O2 (stereo not given)
[10]
  CC50 at 48 h: 86100 nM
Plasmodium falciparum [11]
  EC50: 300 nM
Plasmodium falciparum [12]
  EC50: 3390 nM

## C[C@@H]1CC[C@H]2[C@@H](C)C(=O)O[C@@H]3O[C@@]4(C)CC[C@@H]1[C@]32OO4 [ARTEMISININ]
[10]
  CC50 at 48 h: 435000 nM
Plasmodium falciparum [11]
  EC50: 1 nM
Plasmodium falciparum [14]
  IC50: 5 nM
Plasmodium falciparum [12]
  EC50: 1 nM

## COc1ccc2nc(/C=C/c3ccc([N+](=O)[O-])cc3)cc(N3CCCCC3)c2c1
Plasmodium falciparum [4]
  IC50: > 10000 nM

## COc1ccc2nc(/C=C/c3ccncc3)cc(NCCN(C)C)c2c1
Plasmodium falciparum [2]
  IC50: 33 nM

## COc1ccc2nc(/C=C/c3ccncc3)cc(Nc3ccccc3)c2c1
Plasmodium falciparum [2]
  IC50: 965 nM
